In patent US20210269434A1, “TRICYCLIC COMPOUNDS AS INHIBITORS OF KRAS” (Incyte Corporation, priority 2020, published 2021):

Experiments:
[1] = molecular target: KRAS G12C (Homo sapiens, UniProt P01116, G12C); test: GDP-GTP exchange assay (KRAS_G12C exchange); assay type: biochemical; conditions: bodipy-GDP loaded KRAS G12C 2.5 nM, SOS1 150 nM, GppNHp; 2 hours pre-incubation, 2 hours reaction; read-out: G12C_exchange
Summary of the method: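 Fluorescence exchange of bodipy-GDP for GppNHp, SOS1-driven, read at 485/520 nm; IC50 from four-parameter variable-slope fit. Both mutants used 2.5 nM final labelled protein and a 2 h compound pre-incubation. G12C reaction had 500 uM GppNHp and 150 nM SOS1 for 2 h; G12D ran 4 h.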

[2] = test system: MIA PaCa-2 (KRAS G12C) cells; test: Cellular pERK HTRF assay (KRAS_G12C pERK); assay type: cell-based, human; conditions: Homo sapiens, MIA PaCa-2, 4 hours incubation, read-out: G12C_pERK
Summary of the method: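 MIA PaCa-2 cells plated overnight, then exposed to compound for 4 h at 37 °C (G12C compounds). Phospho-ERK1/2 measured in lysates by HTRF (665/620 nm) after overnight antibody incubation; IC50 from percent inhibition versus log concentration.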

KRAS G12C, sequence (P01116 1-188 isoform P01116-2 G12C): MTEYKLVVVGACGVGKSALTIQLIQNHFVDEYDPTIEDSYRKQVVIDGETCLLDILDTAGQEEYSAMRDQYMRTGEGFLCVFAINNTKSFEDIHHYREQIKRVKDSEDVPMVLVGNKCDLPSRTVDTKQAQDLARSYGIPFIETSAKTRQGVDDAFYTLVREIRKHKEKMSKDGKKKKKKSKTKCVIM

| IC50 [1] [nM] | IC50 [2] [nM] | Compound |
| --- | --- | --- |
| ≤ 100 | ≤ 100 | CC#CC(=O)N1CC[C@H](n2nnc3c(N4CC(C)(N(C)C)C4)nc4c(F)c(-c5ccc(F)c6cccnc56)c(C(F)(F)F)cc4c32)C[C@H]1CC#N [Example 234, 2-((2S,4S)-1-(but-2-ynoyl)-4-(4-(3-(dimethylamino)-3-methylazetidin-1-yl)-6-fluoro-7-(5-fluoroquinolin-8-yl)-8-(trifluoromethyl)-1H-[1,2,3]triazolo[4,5-c]quinolin-1-yl)piperidin-2-yl)acetonitrile] |
| ≤ 100 | ≤ 100 | CC#CC(=O)N1CC[C@H](n2nnc3c(N4CC(C)(N(C)C)C4)nc4c(F)c(-c5cccc(C)c5Cl)c(C(F)(F)F)cc4c32)C[C@H]1CC#N [Example 236, 2-((2S,4S)-1-(but-2-ynoyl)-4-(7-(2-chloro-3-methylphenyl)-4-(3-(dimethylamino)-3-methylazetidin-1-yl)-6-fluoro-8-(trifluoromethyl)-1H-[1,2,3]triazolo[4,5-c]quinolin-1-yl)piperidin-2-yl)acetonitrile] |
| ≤ 100 | ≤ 100 | Cc1cccc(-c2c(C(F)(F)F)cc3c(nc(N4CC(C)(N(C)C)C4)c4nnn([C@H]5CCN(C(=O)/C=C/CN(C)C)[C@H](CC#N)C5)c43)c2F)c1Cl [Example 237, 2-((2S,4S)-4-(7-(2-chloro-3-methylphenyl)-4-(3-(dimethylamino)-3-methylazetidin-1-yl)-6-fluoro-8-(trifluoromethyl)-1H-[1,2,3]triazolo[4,5-c]quinolin-1-yl)-1-((E)-4-(dimethylamino)but-2-enoyl)piperidin-2-yl)acetonitrile] |
| ≤ 100 | ≤ 100 | CC#CC(=O)N1CC[C@H](n2nnc3c(N4CC(C)(N(C)C)C4)nc4c(F)c(-c5cccc(Cl)c5C)c(C(F)(F)F)cc4c32)C[C@H]1CC#N [Example 239a, 2-((2S,4S)-1-(but-2-ynoyl)-4-(7-(3-chloro-2-methyl-phenyl)-4-(3-(dimethyl-amino)-3-methylazetidin-1-yl)-6-fluoro-8-(trifluoro-methyl)-1H-[1,2,3]triazolo-[4,5-c]quinolin-1-yl)piperidin-2-yl)acetonitrile] |
| ≤ 100 | ≤ 100 | Cc1c(Cl)cccc1-c1c(C(F)(F)F)cc2c(nc(N3CC(C)(N(C)C)C3)c3nnn([C@H]4CCN(C(=O)/C=C/CN(C)C)[C@H](CC#N)C4)c32)c1F [Example 240, 2-((2S,4S)-4-(7-(3-chloro-2-methylphenyl)-4-(3-(dimethylamino)-3-methylazetidin-1-yl)-6-fluoro-8-(trifluoromethyl)-1H-[1,2,3]triazolo[4,5-c]quinolin-1-yl)-1-((E)-4-(dimethylamino)but-2-enoyl)piperidin-2-yl)acetonitrile] |
| ≤ 100 | ≤ 100 | CC#CC(=O)N1CC[C@H](n2nnc3c(OC[C@@H]4CCCN4C)nc4c(F)c(-c5cccc(Cl)c5C)c(CCC#N)cc4c32)C[C@H]1CC#N [Example 241a, 3-(1-((2S,4S)-1-(but-2-ynoyl)-2-(cyanomethyl)-piperidin-4-yl)-7-(3-chloro-2-methylphenyl)-6-fluoro-4-(((S)-1-methylpyrrolidin-2-yl)methoxy)-1H-[1,2,3]triazolo[4,5-c]quinolin-8-yl)propanenitrile] |
| ≤ 100 | ≤ 100 | COc1c(Cl)cccc1-c1c(C(F)(F)F)cc2c(nc(N3CC(C)(N(C)C)C3)c3nnn([C@H]4CCN(C(=O)/C=C/CN(C)C)[C@H](CC#N)C4)c32)c1F [Example 244, 2-((2S,4S)-4-(7-(3-chloro-2-methoxyphenyl)-4-(3-(dimethylamino)-3-methylazetidin-1-yl)-6-fluoro-8-(trifluoromethyl)-1H-[1,2,3]triazolo[4,5-c]quinolin-1-yl)-1-((E)-4-(dimethylamino)but-2-enoyl)piperidin-2-yl)acetonitrile] |
